For orientation: Papp means a coefficient for how fast a substance crosses the barrier. Low readings indicate slow passage, high ones fast passage.

Where two headings read alike, the source gives them in different places.

Data set [1] in a line: Artificial membrane permeability assay (PAMPA). The note with it: 5 h incubation, first table; for Papp at 5 h: peak area used in place of concentration. On the technique in general: In PAMPA a lipid-coated filter parts donor from acceptor wells.
Description: In order to test the ability SDC-TRAP molecules of the invention to enter cells, an artificial membrane permeability assay (“PAMPA”) was used. […] LC/MS was used in conjunction with PAMPA assays to determine the ability of the SDC-TRAP molecules of the invention to permeate cells.
Pre-coated PAMPA plates were warmed to room temperature for at least 30 minutes prior to adding assay components.
Stock solutions were prepared with the SDC-TRAP molecules to be tested. In order to make a working solution, either 50 μL of 100 μM Stock in DMSO+950 μL of PBS or 50 μL of 200 stock was added to 96 deep well plate, resulting in a 5 μM final concentration or a 10 μM final concentration, respectively. […] 200 μL of PBS was added into the corresponding wells of an acceptor PAMPA plates.
The acceptor plate was lowered onto the donor plate and allowed to incubate for five hours. After five hours, a 50 μL aliquot was removed from each well of each plate and added into a new 96 deep-well plate.
100 μL of methanol containing an internal standard was added to each aliquot and analyzed by LC/MS. The internal standard was 150 ng/ml SDC-TRAP-0002.
In order to calculate the permeability for each SDC-TRAP molecule and the control molecules, the following formula was used:
Permeability (in Unit of Cm/s):
[formula] • C0=initial compound concentration in donor well (mM) • CD (t)=compound concentration in donor well at time t. (mM) • CA (t)=compound concentration in acceptor well at time t. (mM) • VD=donor well volume=0.3 mL • VA=acceptor well volume=0.2 mL • A=filter area=0.3 cm^2 • t=incubation time=18000 s (5 h)
For the data presented in the table below, peak area was used in place of concentration in the formula above.
Data set [2] can be described thus: Tissue distribution of SDC-TRAP and degradation products in tumor-bearing mice (plasma, tumor, heart). The data set is classed as in vivo, Female SCID Mouse (H1975).
Description: A 150 ng/mL solution of SDC-TRAP-0002 in methanol was prepared using an internal spiking solution (500 μg/mL SDC-TRAP-0002 in DMSO). Using the 10 mM stock solutions of the SDC-TRAP molecule and its Hsp90i binding moiety and effector moiety in DMSO, spiking solutions were prepared at 0.025, 0.05, 0.1, 0.5, 1, 5, 10, 50, 100, 250, and 500 μM in DMSO. 5 μL of each spiking solution was added to a 96-deep well plate.
Quality control standards were prepared from 5 μL of 0.1, 1, and 10 μM calibration standard spiking solution added in triplicate into 96-deep well plate and adding 50 μL of matrix (plasma or homogenized tumor).
To prepare test samples, test plasma was diluted as needed using blank plasma. Tumor samples were pulverized in liquid nitrogen, weighed, and homogenized in PBS at 5× volume to sample weight. 50 μL of unknown plasma or homogenized tumor sample was mixed with 5 μL of DMSO. The samples were extracted by precipitating calibration standards, QC standards, and unknown samples with 200 μL of internal standard solution. The samples were mixed by vortex at room temperature for approximately 1.5 minutes, then centrifuge at 2-8° C. 150 μL of supernatant was collected and 25 μL of water added. Samples were mixed and analyzed by LC-MS/MS.
Samples of plasma, heart and tumor were excised from a euthanized mouse, homogenized in PBS at 5 times tissue weight and diluted in 5 μL DMSO/50 μL sample. Prior to analysis, 55 μL samples and calibration standards were precipitated in 200 μL methanol in 96-well plates. Samples were mixed on a vortex mixer for 1.5 minutes at 1500 rpm at room temperature, then centrifuged at 4400 rpm for 10 minutes at 8° C. 150 μL of each supernatant was transferred to a well of a new 96-well plate, and 25 μL of water was added and mixed with the sample. […] For the analysis of samples from female SCID mice, a gradient of solvent A (water/0.1% formic acid) and B (acetonitrile/0.1% formic acid) was used as in Table A below.
[3] abbreviates: female, SCID, mouse, in vivo, read-out: Tumor/Plasma Ratio.
[4] abbreviates: tissue distribution of SDC-TRAP-0056, 6 h.
Setting [5] is: tissue distribution of SDC-TRAP-0056, 12 h.
The mark [6] stands for this setting: tissue distribution of SDC-TRAP-0056, 24 h.
[7] abbreviates: female, SCID, mouse, in vivo, read-out: Plasma Conc.

For the compound `CC(C)c1cc(-c2nnc(O)n2-c2ccc3c(ccn3CCN(C)C(=O)CCCC(=O)Nc3cccc4c3CN(C3CCC(=O)NC3=O)C4=O)c2)c(O)cc1O` (stereo not drawn) [SDC-TRAP-0018, N1-(2-(5-(3-(2,4-dihydroxy-5-isopropylphenyl)-5-hydroxy-4H-1,2,4-triazol-4-yl)-1H-indol-1-yl)ethyl)-N5-(2-(2,6-dioxopiperidin-3-yl)-1-oxoisoindolin-4-yl)-N1-methylglutaramide], the “Mass Retention (%)” value in data set [1] is 14.7%. Further, the Papp at 5 h in data set [1] (Permeability (10^−6 cm/s)) and in data set [1] (Permeability (cm/s)) was 0.0268 ×10⁻⁶ cm/s in each case.
On to `CC(C)c1cc(-c2nnc(O)n2-c2ccc(CN3CCN(C(=O)Oc4ccc(COC(=O)Nc5cccc6c5CN(C5CCC(=O)NC5=O)C6=O)cc4)CC3)c(F)c2)c(O)cc1O` (stereo not drawn) [SDC-TRAP-0171, 4-((((2-(2,6-dioxopiperidin-3-yl)-1-oxoisoindolin-4-yl)carbamoyl)oxy)methyl)phenyl-4-(4-(3-(2,4-dihydroxy-5-isopropylphenyl)-5-hydroxy-4H-1,2,4-triazol-4-yl)-2-fluorobenzyl)piperazine-1-carboxylate], for which, in data set [2] (setting [3]), the Kp at 6 h stood at 407.
In the case of `CCc1c2c(nc3ccc(O)cc13)-c1cc3c(c(=O)n1C2)COC(=O)C3(CC)OC(=O)CN1CCN(c2ccc(-n3c(O)nnc3-c3cc(C(C)C)c(O)cc3O)cc2)CC1` (stereo not drawn) [SDC-TRAP-0056, 4,11-diethyl-9-hydroxy-3,14-dioxo-3,4,12,14-tetrahydro-1H-pyrano[3′,4′:6,7]indolizino[1,2-b]quinolin-4-yl 2-(4-(4-(3-(2,4-dihydroxy-5-isopropylphenyl)-5-hydroxy-4H-1,2,4-triazol-4-yl)phenyl)piperazin-1-yl)acetate], the Kp in data set [2] (female, SCID, mouse, in vivo, tissue distribution of SDC-TRAP-0056, 6 h, read-out: Tumor/Plasma Ratio) was 0.844; in data set [2] (female, SCID, mouse, in vivo, tissue distribution of SDC-TRAP-0056, 12 h, read-out: Tumor/Plasma Ratio), 40.3; in data set [2] (female, SCID, mouse, in vivo, tissue distribution of SDC-TRAP-0056, 24 h, read-out: Tumor/Plasma Ratio) it was 40.3; in data set [2] (female, SCID, mouse, in vivo, tissue distribution of SDC-TRAP-0056, […], read-out: Tumor/Plasma Ratio), 0.0193. In addition, the “Plasma Conc.” value in data set [2] (setting [4]) is 5880 nM; in data set [2] (setting [5]) it was 54.2 nM; in data set [2] (setting [6]) it was 54.2 nM. The “Tumor Conc.” value was 4.97 nmol/g of tissue in data set [2] (setting [4]); 2.19 nmol/g of tissue in data set [2] (setting [5]); 2.19 nmol/g of tissue in data set [2] (setting [6]); 0.188 nmol/g of tissue in data set [2] (tissue distribution of SDC-TRAP-0056, 48 h).
For the compound `CCNC(=O)c1nnc(-c2cc(C(C)C)c(O)cc2O)n1-c1ccc(C(=O)N2CCN(c3cc(C)c(OC(=O)Nc4cccc5c4CN(C4CCC(=O)NC4=O)C5=O)c(C)c3)CC2)cc1` (stereo not drawn) [SDC-TRAP-0178, 4-(4-(4-(3-(2,4-dihydroxy-5-isopropylphenyl)-5-(ethylcarbamoyl)-4H-1,2,4-triazol-4-yl)benzoyl)piperazin-1-yl)-2,6-dimethylphenyl (2-(2,6-dioxopiperidin-3-yl)-1-oxoisoindolin-4-yl)carbamate], in data set [2] (setting [7]), the concentration at 1 h turned out to be 217000 nM, the concentration at 6 h was 4510 nM, the concentration at 24 h was 28 nM and the concentration at 48 h stood at 241 nM. For the same compound, in data set [2] (setting [3]), the Kp at 1 h worked out at 1.59, the Kp at 6 h came to 100, the Kp at 24 h is 100 and the Kp at […] was found to be 0.0179.
With `COc1ccc(-c2cnoc2-c2cc(OC)c(OC)c(OC)c2)cc1OC(=O)N1CCN(Cc2ccc(-n3c(O)nnc3-c3cc(C(C)C)c(O)cc3O)cc2)CC1` [SDC-TRAP-0098, 2-Methoxy-5-(5-(3,4,5-trimethoxyphenyl)isoxazol-4-yl)phenyl-4-(4-(3-(2,4-dihydroxy-5-isopropylphenyl)-5-hydroxy-4H-1,2,4-triazol-4-yl)benzyl) piperazine-1-carboxylate], the “Tumor Conc.” value in data set [2] (tissue distribution of SDC-TRAP-0098, 1 h) is 0.250 nmol/g of tissue; in data set [2] (tissue distribution of SDC-TRAP-0098, 6 h), 0.0122 nmol/g of tissue; in data set [2] (tissue distribution of SDC-TRAP-0098, 24 h), “BQL”; in data set [2] (tissue distribution of SDC-TRAP-0098, 48 h), “BQL”.

The record behind these values is patent publication US20200316090A1, “TARGETED THERAPEUTICS” (MADRIGAL PHARMACEUTICALS, INC., priority 2012, published 2020).
